A word on the IC50: it is the concentration at which inhibition is half-maximal.

Drawing on patent US10273267B2, “Beta-hairpin peptidomimetics as selective elastase inhibitors” (POLYPHOR AG, priority 2013, dated 2019), this text covers IC50, hNE/PPE selectivity and hNE/hPr3 selectivity for five compounds.

Structures are written as SMILES. Where a SMILES comes first, the peptide text is derived from it. [ ]: non-standard residue; d: D form. Gly(octyl) = CCCCCCCC[C@H](N)C(=O)O

Common to all, as to type: biochemical
Assay [1] addresses T1, human neutrophil elastase (Homo sapiens, UniProt P08246).
T1 construct: purchased Serva Electrophoresis, Germany
T1 sequence (P08246 30-267): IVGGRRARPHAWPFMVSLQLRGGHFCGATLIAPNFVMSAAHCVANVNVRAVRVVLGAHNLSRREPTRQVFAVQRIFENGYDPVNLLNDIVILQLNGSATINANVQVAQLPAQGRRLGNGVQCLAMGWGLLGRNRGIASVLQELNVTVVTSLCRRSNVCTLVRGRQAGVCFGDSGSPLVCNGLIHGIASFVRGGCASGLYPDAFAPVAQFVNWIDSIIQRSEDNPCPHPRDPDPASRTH
In words: Inhibition of human neutrophil elastase (hydrolysis of MeOSuc-AAPV-pNA). Particulars: substrate MeOSuc-AAPV-pNA 0.3 mM, enzyme 10 nM, 37° C., pH 8; read-out: Human neutrophil elastase (hNE) IC50. In outline:
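MeOSuc-AAPV-pNA (0.3 mM) hydrolysis by 10 nM enzyme at 37° C with serially diluted peptides (1% DMSO) in 50 mM Tris pH 8, 300 mM NaCl, 0.01% Tween20. pNA release read at 405 nm over 30 minutes; IC50 from 4-parameter Hill fit.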

Assay [2] deals with T2, porcine pancreatic elastase (Sus scrofa, UniProt P00772).
T2 construct: purchased Sigma, USA
T2 sequence (P00772 27-266): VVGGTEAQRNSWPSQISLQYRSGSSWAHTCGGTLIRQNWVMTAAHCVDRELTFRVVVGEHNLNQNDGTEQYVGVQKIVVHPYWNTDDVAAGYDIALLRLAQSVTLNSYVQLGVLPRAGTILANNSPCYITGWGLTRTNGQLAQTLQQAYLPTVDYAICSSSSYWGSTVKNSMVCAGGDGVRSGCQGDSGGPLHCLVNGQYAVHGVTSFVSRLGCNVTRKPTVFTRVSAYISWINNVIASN
Kind of assay: Inhibition of porcine pancreatic elastase (hydrolysis of MeOSuc-AAA-pNA). Particulars: for hNE/PPE selectivity: ratio of PPE IC50 to hNE IC50; for IC50: substrate MeOSuc-AAA-pNA 1 mM, enzyme 15 nM, 37° C., pH8, read-out: Porcine pancreatic elastase (PPE) IC50. In outline:
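Elastase (15 nM) incubated at 37 °C with 1 mM MeOSuc-AAA-pNA and serially diluted peptides (0.5% DMSO) in 50 mM Tris pH 8, 100 mM NaCl, 0.01% Tween20. pNA release read at 405 nm over 30 min; IC50 from 4-parameter Hill fit.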

For assay [3], the target named is T3, human proteinase 3 (Homo sapiens, UniProt P24158).
T3 construct: purchased Elastin Products Company, USA
T3 sequence (P24158 28-248): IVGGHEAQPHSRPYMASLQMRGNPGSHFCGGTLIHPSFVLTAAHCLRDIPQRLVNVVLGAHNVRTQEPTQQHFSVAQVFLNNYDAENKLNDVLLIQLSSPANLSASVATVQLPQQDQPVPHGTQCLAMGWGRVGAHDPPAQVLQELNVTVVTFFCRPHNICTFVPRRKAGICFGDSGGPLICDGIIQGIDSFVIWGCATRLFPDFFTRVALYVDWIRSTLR
In words: Inhibition of human proteinase 3 (substrate Boc-Ala-Ala-Nva-SBzl). The following applies: for hNE/hPr3 selectivity: ratio of hPr3 IC50 to hNE IC50; for IC50: substrate Boc-Ala-Ala-Nva-SBzl 1 mM, enzyme 10 nM, 37° C., pH7.4, read-out: Human proteinase 3 (hPr3) IC50. The essentials:
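Enzyme at 10 nM incubated at 37°C with 1 mM thiobenzyl ester substrate, 250 μM 4,4′-dithiodipyridine and serial peptide dilutions (0.5% DMSO) in Tris pH 7.4, 150 mM NaCl, 0.01% Tween20. Absorbance at 340 nm followed over 30 min; IC50 from 4-parameter Hill fit.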

Regarding `CCCCCCCC[C@@H]1NC(=O)[C@H](Cc2ccc(O)cc2)NC(=O)[C@@H](Cc2ccc(O)cc2)NC(=O)[C@H]([C@@H](C)O)NC(=O)[C@H](CCCCN)NC(=O)[C@H](CCC(N)=O)NC(=O)[C@@H]2CCCN2C(=O)[C@@H]2CCCN2C(=O)[C@H]([C@@H](C)CC)NC(=O)[C@H](CO)NC(=O)[C@H](C)NC(=O)[C@H]([C@@H](C)O)NC(=O)[C@H](CCC(=O)O)NC1=O` [Example 24, Cyclo(-OctGly-Glu-Thr-Ala-Ser-Ile-Pro-Pro-Gln-Lys-Thr-^DTyr-Tyr-)] (cyclo([Gly(octyl)]ETASIPPQKT[dY]Y)), the IC50 in assay [1] amounted to 0.0116 µM; in assay [2] it was 12.9 µM; in assay [3], 7.7 µM. Also, in assay [2], the hNE/PPE selectivity was found to be 1112. Moreover, in assay [3], the hNE/hPr3 selectivity was 664.
The like results for `CCCCCCCC[C@@H]1NC(=O)[C@H](CCCCN)NC(=O)[C@@H](Cc2ccc(O)cc2)NC(=O)[C@H]([C@@H](C)O)NC(=O)[C@H](CCCCN)NC(=O)[C@H](CCC(N)=O)NC(=O)[C@@H]2CCCN2C(=O)[C@@H]2CCCN2C(=O)[C@H]([C@@H](C)CC)NC(=O)[C@H](CO)NC(=O)[C@H](C)NC(=O)[C@H]([C@@H](C)O)NC(=O)[C@H](CCC(=O)O)NC1=O` [Example 25, Cyclo(-OctGly-Glu-Thr-Ala-Ser-Ile-Pro-Pro-GI n-Lys-Thr-^DTyr-Lys-)] (cyclo([Gly(octyl)]ETASIPPQKT[dY]K)) were, in that order, 0.0064 µM, 45 µM, 41.8 µM, 7031 and 6531.
Consider `CCCCCCCC[C@@H]1NC(=O)[C@H](C(C)C)NC(=O)[C@@H](CCCCN)NC(=O)[C@H]([C@@H](C)O)NC(=O)[C@H](CCCCN)NC(=O)[C@H](CCC(N)=O)NC(=O)[C@@H]2CCCN2C(=O)[C@@H]2CCCN2C(=O)[C@H]([C@@H](C)CC)NC(=O)[C@H](CO)NC(=O)[C@H](C)NC(=O)[C@H]([C@@H](C)O)NC(=O)[C@H](CCC(=O)O)NC1=O` [Example 26, Cyclo(-OctGly-Glu-Thr-Ala-Ser-Ile-Pro-Pro-GI n-Lys-Thr-^DLys-Val-)] (cyclo([Gly(octyl)]ETASIPPQKT[dK]V)), for which the IC50 in assay [1] amounted to 0.0106 µM. In addition, in assay [2], the hNE/PPE selectivity was 4415 and the IC50 was 46.8 µM. Further, in assay [3], the hNE/hPr3 selectivity came out at 472 and the IC50 is 5 µM.
The like results for `CCCCCCCC[C@@H]1NC(=O)[C@H](Cc2ccc(O)cc2)NC(=O)[C@@H](CCCCN)NC(=O)[C@H]([C@@H](C)O)NC(=O)[C@H](CCCCN)NC(=O)[C@H](CCC(N)=O)NC(=O)[C@@H]2CCCN2C(=O)[C@@H]2CCCN2C(=O)[C@H]([C@@H](C)CC)NC(=O)[C@H](CO)NC(=O)[C@H](C)NC(=O)[C@H]([C@@H](C)O)NC(=O)[C@H](CCC(=O)O)NC1=O` [Example 27, Cyclo(-OctGly-Glu-Thr-Ala-Ser-Ile-Pro-Pro-GI n-Lys-Thr-^DLys-Tyr-)] (cyclo([Gly(octyl)]ETASIPPQKT[dK]Y)) were, in that order, 0.0101 µM, 4366, 44.1 µM, 3921 and 39.6 µM.
The like results for `CCCCCCCC[C@@H]1NC(=O)[C@H](CCCCN)NC(=O)[C@@H](CCCCN)NC(=O)[C@H]([C@@H](C)O)NC(=O)[C@H](CCCCN)NC(=O)[C@H](CCC(N)=O)NC(=O)[C@@H]2CCCN2C(=O)[C@@H]2CCCN2C(=O)[C@H]([C@@H](C)CC)NC(=O)[C@H](CO)NC(=O)[C@H](C)NC(=O)[C@H]([C@@H](C)O)NC(=O)[C@H](CCC(=O)O)NC1=O` [Example 28, Cyclo(-OctGly-Glu-Thr-Ala-Ser-Ile-Pro-Pro-GI n-Lys-Thr-^DLys-Lys-)] (cyclo([Gly(octyl)]ETASIPPQKT[dK]K)) were, in that order, 0.012 µM, >8333, > 100 µM, >8333 and > 100 µM.
